Source: patent US8541598B2, “Biodegradable solvents for the chemical industry” (Dublin City University, priority 2007, dated 2013)

System: Pseudomonas aeruginosa, Escherichia coli, Klebsiella sp., Salmonella sp., Staphylococcus aureus, Enterococcus sp., Bacillus subtilis
Assay: Antimicrobial activity / minimum inhibitory concentrations on seven strains of bacteria
Format: cell-based
Conditions: for toxicity / antibacterial activity in words: seven strains of bacteria; for MIC values: seven strains, not split, range tested 0-20000 μg/ml
Description: Seven strains of bacteria were used in the assessment of the antimicrobial activity of the ILs claimed: 4 gram negative and three gram positive as shown below.
A wide concentration range was tested (0-20000 μg/ml). The concentrations screened for antibacterial activity are generally from 2 μg/ml to 1000 μg/ml (Table 6). […] The concentration range screened for the ILs containing ethers was up to 20000 μg/ml. At these high concentrations a lack of antibacterial activity is a significant result.

2,3-dimethyl-1-(2-[2-butoxy]ethoxycarbonylmethyl)imidazolium BF4 [KG71]
toxicity / antibacterial activity in words: non-toxic | MIC values: >20000 KG71 μg/ml

2,3-dimethyl-1-(2-[2-butoxy]ethoxycarbonylmethyl)imidazolium PF6 [KG32]
toxicity / antibacterial activity in words: non-toxic | MIC values: >20000 KG32 μg/ml

2,3-dimethyl-1-(2-[2-methoxyethoxy]ethoxycarbonylmethyl)imidazolium BF4 [KG72]
toxicity / antibacterial activity in words: non-toxic | MIC values: >20000 KG72 μg/ml

2,3-dimethyl-1-(2-[2-methoxyethoxy]ethoxycarbonylmethyl)imidazolium PF6 [KG33]
toxicity / antibacterial activity in words: non-toxic | MIC values: >20000 KG33 μg/ml

3-methyl-1-(2-[2-butoxy]ethoxycarbonylmethyl)imidazolium BF4 [KG65]
toxicity / antibacterial activity in words: non-toxic | MIC values: >20000 KG65 μg/ml

3-methyl-1-(2-[2-butoxy]ethoxycarbonylmethyl)imidazolium PF6 [KG26]
toxicity / antibacterial activity in words: non-toxic | MIC values: >20000 KG26 μg/ml

3-methyl-1-(2-[2-butoxyethoxy]ethoxycarbonylmethyl)imidazolium BF4 [KG69]
toxicity / antibacterial activity in words: non-toxic | MIC values: >20000 KG69 μg/ml

3-methyl-1-(2-[2-butoxyethoxy]ethoxycarbonylmethyl)imidazolium PF6 [KG30]
toxicity / antibacterial activity in words: non-toxic | MIC values: >20000 KG30 μg/ml

3-methyl-1-(2-[2-ethoxy]ethoxycarbonylmethyl)imidazolium BF4 [KG63]
toxicity / antibacterial activity in words: non-toxic | MIC values: >20000 KG63 μg/ml

3-methyl-1-(2-[2-ethoxy]ethoxycarbonylmethyl)imidazolium PF6 [KG24]
toxicity / antibacterial activity in words: non-toxic | MIC values: >20000 KG24 μg/ml

3-methyl-1-(2-[2-ethoxyethoxy]ethoxycarbonylmethyl)imidazolium BF4 [KG67]
toxicity / antibacterial activity in words: non-toxic | MIC values: >20000 KG67 μg/ml

3-methyl-1-(2-[2-ethoxyethoxy]ethoxycarbonylmethyl)imidazolium PF6 [KG28]
toxicity / antibacterial activity in words: non-toxic | MIC values: >20000 KG28 μg/ml

3-methyl-1-(2-[2-methoxy]ethoxycarbonylmethyl)imidazolium BF4 [KG62]
toxicity / antibacterial activity in words: non-toxic | MIC values: >20000 KG62 μg/ml

3-methyl-1-(2-[2-methoxy]ethoxycarbonylmethyl)imidazolium PF6 [KG23]
toxicity / antibacterial activity in words: non-toxic | MIC values: >20000 KG23 μg/ml

3-methyl-1-(2-[2-methoxy]ethoxycarbonylmethyl)imidazolium bromide [KG7]
toxicity / antibacterial activity in words: non-toxic | MIC values: >20000 KG7 μg/ml

3-methyl-1-(2-[2-methoxyethoxy]ethoxycarbonylmethyl)imidazolium BF4 [KG66]
toxicity / antibacterial activity in words: non-toxic | MIC values: >20000 KG66 μg/ml

3-methyl-1-(2-[2-methoxyethoxy]ethoxycarbonylmethyl)imidazolium PF6 [KG27]
toxicity / antibacterial activity in words: non-toxic | MIC values: 2500 KG27 μg/ml

3-methyl-1-(2-[2-propoxy]ethoxycarbonylmethyl)imidazolium BF4 [KG64]
toxicity / antibacterial activity in words: non-toxic | MIC values: >20000 KG64 μg/ml

3-methyl-1-(2-[2-propoxy]ethoxycarbonylmethyl)imidazolium PF6 [KG25]
toxicity / antibacterial activity in words: non-toxic | MIC values: >20000 KG25 μg/ml

3-methyl-1-(2-[2-propoxyethoxy]ethoxycarbonylmethyl)imidazolium BF4 [KG68]
toxicity / antibacterial activity in words: non-toxic | MIC values: >20000 KG68 μg/ml

3-methyl-1-(2-[2-propoxyethoxy]ethoxycarbonylmethyl)imidazolium PF6 [KG29]
toxicity / antibacterial activity in words: non-toxic | MIC values: >20000 KG29 μg/ml

COCCOC(=O)Cn1cc[n+](C)c1.O=S(=O)([N-]S(=O)(=O)C(F)(F)F)C(F)(F)F [KG49, 3-methyl-1-(2-[2-methoxy]ethoxycarbonylmethyl)imidazolium NTf2]
toxicity / antibacterial activity in words: non-toxic | MIC values: 10000 KG49 μg/ml

CCOCCOC(=O)C[n+]1ccn(C)c1.O=S(=O)([N-]S(=O)(=O)C(F)(F)F)C(F)(F)F [KG50, 3-methyl-1-(2-[2-ethoxy]ethoxycarbonylmethyl)imidazolium NTf2]
toxicity / antibacterial activity in words: non-toxic | MIC values: >20000 KG50 μg/ml

CCCOCCOC(=O)Cn1cc[n+](C)c1.O=S(=O)([N-]S(=O)(=O)C(F)(F)F)C(F)(F)F [KG51, 3-methyl-1-(2-[2-propoxy]ethoxycarbonylmethyl)imidazolium NTf2]
toxicity / antibacterial activity in words: non-toxic | MIC values: 10000 KG51 μg/ml

CCCCOCCOC(=O)Cn1cc[n+](C)c1.O=S(=O)([N-]S(=O)(=O)C(F)(F)F)C(F)(F)F [KG52, 3-methyl-1-(2-[2-butoxy]ethoxycarbonylmethyl)imidazolium NTf2]
toxicity / antibacterial activity in words: non-toxic | MIC values: >20000 KG52 μg/ml

COCCOCCOC(=O)Cn1cc[n+](C)c1.O=S(=O)([N-]S(=O)(=O)C(F)(F)F)C(F)(F)F [KG53, 3-methyl-1-(2-[2-methoxyethoxy]ethoxycarbonylmethyl)imidazolium NTf2]
toxicity / antibacterial activity in words: non-toxic | MIC values: 10000 KG53 μg/ml

CCOCCOCCOC(=O)C[n+]1ccn(C)c1.O=S(=O)([N-]S(=O)(=O)C(F)(F)F)C(F)(F)F [KG54, 3-methyl-1-(2-[2-ethoxyethoxy]ethoxycarbonylmethyl)imidazolium NTf2]
toxicity / antibacterial activity in words: non-toxic | MIC values: >20000 KG54 μg/ml

CCCOCCOCCOC(=O)C[n+]1ccn(C)c1.O=S(=O)([N-]S(=O)(=O)C(F)(F)F)C(F)(F)F [KG55, 3-methyl-1-(2-[2-propoxyethoxy]ethoxycarbonylmethyl)imidazolium NTf2]
toxicity / antibacterial activity in words: non-toxic | MIC values: >20000 KG55 μg/ml

CCCCOCCOCCOC(=O)Cn1cc[n+](C)c1.O=S(=O)([N-]S(=O)(=O)C(F)(F)F)C(F)(F)F [KG56, 3-methyl-1-(2-[2-butoxyethoxy]ethoxycarbonylmethyl)imidazolium NTf2]
toxicity / antibacterial activity in words: non-toxic | MIC values: >20000 KG56 μg/ml

CCCCOCCOC(=O)C[n+]1ccn(C)c1C.O=S(=O)([N-]S(=O)(=O)C(F)(F)F)C(F)(F)F [KG58, 2,3-dimethyl-1-(2-[2-butoxy]ethoxycarbonylmethyl)imidazolium NTf2]
toxicity / antibacterial activity in words: non-toxic | MIC values: >20000 KG58 μg/ml

COCCOCCOC(=O)Cn1cc[n+](C)c1C.O=S(=O)([N-]S(=O)(=O)C(F)(F)F)C(F)(F)F [KG59, 2,3-dimethyl-1-(2-[2-methoxyethoxy]ethoxycarbonylmethyl)imidazolium NTf2]
toxicity / antibacterial activity in words: non-toxic | MIC values: >20000 KG59 μg/ml

CCCCOC(=O)Cn1cc[n+](C)c1.N#C[N-]C#N [KG73, 3-Methyl-1-(butoxycarbonylmethyl) imidazolium N(CN)2^−]
MIC values: 5000 KG73 μg/ml

COCCOC(=O)Cn1cc[n+](C)c1.N#C[N-]C#N [KG75, 3-methyl-1-(2-[2-methoxy]ethoxycarbonylmethyl)imidazolium N(CN)2]
toxicity / antibacterial activity in words: non-toxic | MIC values: >20000 KG75 μg/ml

CCOCCOC(=O)C[n+]1ccn(C)c1.N#C[N-]C#N [KG76, 3-methyl-1-(2-[2-ethoxy]ethoxycarbonylmethyl)imidazolium N(CN)2]
toxicity / antibacterial activity in words: non-toxic | MIC values: >20000 KG76 μg/ml

CCCOCCOC(=O)C[n+]1ccn(C)c1.N#C[N-]C#N [KG77, 3-methyl-1-(2-[2-propoxy]ethoxycarbonylmethyl)imidazolium N(CN)2]
toxicity / antibacterial activity in words: non-toxic | MIC values: >20000 KG77 μg/ml

CCCCOCCOC(=O)Cn1cc[n+](C)c1.N#C[N-]C#N [KG78, 3-methyl-1-(2-[2-butoxy]ethoxycarbonylmethyl)imidazolium N(CN)2]
toxicity / antibacterial activity in words: non-toxic | MIC values: >20000 KG78 μg/ml

COCCOCCOC(=O)Cn1cc[n+](C)c1.N#C[N-]C#N [KG79, 3-methyl-1-(2-[2-methoxyethoxy]ethoxycarbonylmethyl)imidazolium N(CN)2]
toxicity / antibacterial activity in words: non-toxic | MIC values: >20000 KG79 μg/ml

CCOCCOCCOC(=O)Cn1cc[n+](C)c1.N#C[N-]C#N [KG80, 3-methyl-1-(2-[2-ethoxyethoxy]ethoxycarbonylmethyl)imidazolium N(CN)2]
toxicity / antibacterial activity in words: non-toxic | MIC values: >20000 KG80 μg/ml

CCCOCCOCCOC(=O)Cn1cc[n+](C)c1.N#C[N-]C#N [KG81, 3-methyl-1-(2-[2-propoxyethoxy]ethoxycarbonylmethyl)imidazolium N(CN)2]
toxicity / antibacterial activity in words: non-toxic | MIC values: >20000 KG81 μg/ml

CCCCOCCOCCOC(=O)Cn1cc[n+](C)c1.N#C[N-]C#N [KG82, 3-methyl-1-(2-[2-butoxyethoxy]ethoxycarbonylmethyl)imidazolium N(CN)2]
toxicity / antibacterial activity in words: non-toxic | MIC values: >20000 KG82 μg/ml

CCCCOCCOC(=O)Cn1cc[n+](C)c1C.N#C[N-]C#N [KG84, 2,3-dimethyl-1-(2-[2-butoxy]ethoxycarbonylmethyl)imidazolium N(CN)2]
toxicity / antibacterial activity in words: non-toxic | MIC values: >20000 KG84 μg/ml
